Laboratory results from patent US20150313228A1, “SYNERGISTIC HERBICIDAL COMBINATIONS AND METHODS OF USE” (priority 2012, published 2015).

Columns and labels:
Palmer amaranth = assay: Post-emergence application in Palmer amaranth under greenhouse conditions (Example 7); assay type: in vivo; details: 24 days after application
Description: (§1) The following testing protocol was employed to evaluate the post-emergence application of herbicides and herbicide combinations as described in the following examples unless otherwise specified. The weed species to be treated were planted in 3.5 inch pots containing redi-earth potting mix and grown under greenhouse conditions. When the weed species reached a height of about four inches, herbicide was applied at the specified application rate using a track sprayer with a flat even nozzle type, 9501E nozzle size, and spray pressure of 165 kPa. After the application of the herbicide(s), the pots were only sub-irrigated as needed. Throughout the test period, temperature was maintained from about 20° C. to about 30° C. and relative humidity was maintained at about 30%. The plants were rated visually and percentage of weed control was determined for each treatment at 15 to 21 days after herbicide application.
(§2) Post-emergence application of several herbicides and herbicide combinations was evaluated in Palmer amaranth under greenhouse conditions. The plants were rated visually and percentage of weed control was determined at 24 days after herbicide application. The herbicides and herbicide combinations evaluated are listed in Table 7-A below together with the corresponding percent control data. The data represent an average value (n=6).
The results of the analysis are reported below in Table 7-B (glyphosate+dicamba), Table 7-C(glyphosate+metribuzin), and Table 7-D (dicamba+metribuzin).

velvetleaf = assay: Post-emergence application in velvetleaf under greenhouse conditions (Example 8); assay type: in vivo
Description: as §1
as §2, with “velvetleaf” for “Palmer amaranth”, “8-A” for “7-A”
The results of the analysis are reported below in Table 8-B (glyphosate+dicamba), Table 8-C(glyphosate+metribuzin), and Table 8-D (dicamba+metribuzin).

[1] = test system: broad-leaf and grass weed species; assay: Field testing of pre-emergence application of dicamba and acetochlor in Argentina and/or South Africa (Example 10); details: for percent control Y (DIACAMBA OR ATRAZINE ALONE): early rating (14 day); for Y (dicamba alone): late rating (28 day);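 on all read-outs here: percent weed control in field trials, rated at 14 days (early) and 28 days (late) after treatment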

`COc1c(Cl)ccc(Cl)c1C(=O)O` [Dicamba, 3,6-dichloro-2-methoxy benzoic acid] was tested, and the “PERCENT CONTROL” value (Palmer amaranth; 280 g/ha) was 100.0%, the “PERCENT CONTROL” value (Palmer amaranth; 560 g/ha) was 100.0% and the “PERCENT CONTROL (ACTUAL)” value (velvetleaf; 280 g/ha, 24 days after application) was 82.0%. For the same compound, the “PERCENT CONTROL (ACTUAL)” value (velvetleaf; 560 g/ha, 24 days after application) was 95.0%, the “PERCENT CONTROL (ACTUAL)” value (velvetleaf; Table 8-D, velvetleaf, 24 days, dose 280 g/ha) was 82.0% and the “PERCENT CONTROL (ACTUAL)” value (velvetleaf; Table 8-D, velvetleaf, 24 days, dose 560 g/ha) was 95.0%. For the same compound, the “percent control Y (DIACAMBA OR ATRAZINE ALONE)” value (“percent control Y” for short) ([1]; AMADE, 560 g/ha) was 99.3%, the “Y (dicamba alone)” value ([1]; AMADE, 560 g/ha) was 83.1% and the “percent control Y” value ([1]; AMAQU, 280 g/ha) was 52.9%. For the same compound, the “Y (dicamba alone)” value ([1]; AMAQU, 280 g/ha) was 40.6%, the “percent control Y” value ([1]; AMAQU, 560 g/ha) was 61.4% and the “Y (dicamba alone)” value ([1]; AMAQU, 560 g/ha) was 54.3%. For the same compound, the “percent control Y” value ([1]; ANOCR, 280 g/ha) was 53.0%, the “Y (dicamba alone)” value ([1]; ANOCR, 280 g/ha) was 40.5% and the “percent control Y” value ([1]; ANOCR, 560 g/ha) was 66.1%. For the same compound, the “Y (dicamba alone)” value ([1]; ANOCR, 560 g/ha) was 54.5%, the “percent control Y” value ([1]; BIDPI, 280 g/ha) was 2.3% and the “Y (dicamba alone)” value ([1]; BIDPI, 280 g/ha) was 5.0%. For the same compound, the “percent control Y” value ([1]; BIDPI, 560 g/ha) was 74.5%, the “Y (dicamba alone)” value ([1]; BIDPI, 560 g/ha) was 72.5% and the “Y (dicamba alone)” value ([1]; BRAER, 560 g/ha) was 67.5%. For the same compound, the “percent control Y” value ([1]; CHEAL, 280 g/ha) was 56.7%, the “Y (dicamba alone)” value ([1]; CHEAL, 280 g/ha) was 38.2% and the “percent control Y” value ([1]; CHEAL, 560 g/ha) was 96.7%. For the same compound, the “Y (dicamba alone)” value ([1]; CHEAL, 560 g/ha) was 86.7%, the “Y (dicamba alone)” value ([1]; CHRGA, 280 g/ha) was 6.2% and the “percent control Y” value ([1]; CHRGA, 560 g/ha) was 98.0%. The “Y (dicamba alone)” value ([1]; CHRGA, 560 g/ha) was 100.0%, the “percent control Y” value ([1]; COMBE, 280 g/ha) was 2.7% and the “Y (dicamba alone)” value ([1]; COMBE, 280 g/ha) was 10.0%. For the same compound, the “percent control Y” value ([1]; COMBE, 560 g/ha) was 75.0%, the “Y (dicamba alone)” value ([1]; COMBE, 560 g/ha) was 76.3% and the “percent control Y” value ([1]; CONFA, 280 g/ha) was 1.3%. The “Y (dicamba alone)” value ([1]; CONFA, 280 g/ha) was 6.2%, the “percent control Y” value ([1]; CONFA, 560 g/ha) was 17.5% and the “Y (dicamba alone)” value ([1]; CONFA, 560 g/ha) was 55.0%. For the same compound, the “percent control Y” value ([1]; CYNDA, 280 g/ha) was 28.8%, the “percent control Y” value ([1]; CYNDA, 560 g/ha) was 47.7% and the “percent control Y” value ([1]; CYPES, 280 g/ha) was 1.0%. For the same compound, the “Y (dicamba alone)” value ([1]; CYPES, 280 g/ha) was 5.0%, the “percent control Y” value ([1]; CYPES, 560 g/ha) was 65.0% and the “Y (dicamba alone)” value ([1]; CYPES, 560 g/ha) was 63.3%. The “percent control Y” value ([1]; CYPRO, 280 g/ha) was 42.3%, the “Y (dicamba alone)” value ([1]; CYPRO, 280 g/ha) was 0.8% and the “percent control Y” value ([1]; CYPRO, 560 g/ha) was 44.4%. For the same compound, the “Y (dicamba alone)” value ([1]; CYPRO, 560 g/ha) was 15.4%, the “percent control Y” value ([1]; DATFE, 280 g/ha) was 18.5% and the “Y (dicamba alone)” value ([1]; DATFE, 280 g/ha) was 16.7%. The “percent control Y” value ([1]; DATFE, 560 g/ha) was 59.6%, the “Y (dicamba alone)” value ([1]; DATFE, 560 g/ha) was 58.5% and the “percent control Y” value ([1]; DIGER, 280 g/ha) was 2.5%. The “Y (dicamba alone)” value ([1]; DIGER, 280 g/ha) was 10.0%, the “percent control Y” value ([1]; DIGER, 560 g/ha) was 98.0% and the “Y (dicamba alone)” value ([1]; DIGER, 560 g/ha) was 100.0%. For the same compound, the “percent control Y” value ([1]; DIGSA, 280 g/ha) was 32.7%, the “Y (dicamba alone)” value ([1]; DIGSA, 280 g/ha) was 23.8% and the “percent control Y” value ([1]; DIGSA, 560 g/ha) was 45.6%. For the same compound, the “Y (dicamba alone)” value ([1]; DIGSA, 560 g/ha) was 32.7%, the “Y (dicamba alone)” value ([1]; DTTAE, 280 g/ha) was 6.2% and the “Y (dicamba alone)” value ([1]; DTTAE, 560 g/ha) was 100.0%. For the same compound, the “percent control Y” value ([1]; ELEAF, 280 g/ha) was 100.0%, the “Y (dicamba alone)” value ([1]; ELEAF, 280 g/ha) was 8.0% and the “percent control Y” value ([1]; ELEAF, 560 g/ha) was 100.0%. For the same compound, the “Y (dicamba alone)” value ([1]; ELEAF, 560 g/ha) was 97.5%, the “percent control Y” value ([1]; HIBCA, 280 g/ha) was 1.8% and the “Y (dicamba alone)” value ([1]; HIBCA, 280 g/ha) was 11.3%. The “percent control Y” value ([1]; HIBCA, 560 g/ha) was 42.5%, the “Y (dicamba alone)” value ([1]; HIBCA, 560 g/ha) was 55.0% and the “Y (dicamba alone)” value ([1]; IPOBA, 280 g/ha) was 8.8%. For the same compound, the “Y (dicamba alone)” value ([1]; IPOBA, 560 g/ha) was 0.0%, the “percent control Y” value ([1]; IPOPD, 280 g/ha) was 2.6% and the “Y (dicamba alone)” value ([1]; IPOPD, 280 g/ha) was 10.0%. The “percent control Y” value ([1]; IPOPD, 560 g/ha) was 21.3%, the “Y (dicamba alone)” value ([1]; IPOPD, 560 g/ha) was 45.0% and the “percent control Y” value ([1]; OVERALL, 280 g/ha) was 36.2%. For the same compound, the “percent control Y” value ([1]; OVERALL, 560 g/ha) was 57.4%, the “Y (dicamba alone)” value ([1]; Overall, 280 g/ha) was 29.8% and the “Y (dicamba alone)” value ([1]; Overall, 560 g/ha) was 51.7%. For the same compound, the “percent control Y” value ([1]; PERCENT WEED FREE, 280 g/ha) was 64.5%, the “percent control Y” value ([1]; PERCENT WEED FREE, 560 g/ha) was 74.2% and the “percent control Y” value ([1]; POROL, 280 g/ha) was 35.8%. For the same compound, the “Y (dicamba alone)” value ([1]; POROL, 280 g/ha) was 27.8%, the “percent control Y” value ([1]; POROL, 560 g/ha) was 49.2% and the “Y (dicamba alone)” value ([1]; POROL, 560 g/ha) was 45.0%. For the same compound, the “Y (dicamba alone)” value ([1]; Percent Weed Free, 280 g/ha) was 43.4%, the “Y (dicamba alone)” value ([1]; Percent Weed Free, 560 g/ha) was 54.3% and the “percent control Y” value ([1]; RCHBR, 280 g/ha) was 2.4%. The “Y (dicamba alone)” value ([1]; RCHBR, 280 g/ha) was 8.5%, the “percent control Y” value ([1]; RCHBR, 560 g/ha) was 89.0% and the “Y (dicamba alone)” value ([1]; RCHBR, 560 g/ha) was 88.8%. For the same compound, the “percent control Y” value ([1]; TAGMI, 280 g/ha) was 0.0%, the “Y (dicamba alone)” value ([1]; TAGMI, 280 g/ha) was 0.0% and the “percent control Y” value ([1]; TAGMI, 560 g/ha) was 92.5%. For the same compound, the “Y (dicamba alone)” value ([1]; TAGMI, 560 g/ha) was 64.3%, the “percent control Y” value ([1]; XANST, 280 g/ha) was 15.3% and the “Y (dicamba alone)” value ([1]; XANST, 280 g/ha) was 28.8%. The “percent control Y” value ([1]; XANST, 560 g/ha) was 43.3% and the “Y (dicamba alone)” value ([1]; XANST, 560 g/ha) was 32.5%.
